Source: US10053417B2, “Neprilysin inhibitors” (THERAVANCE BIOPHARMA R&D IP, LLC, priority 2013, dated 2018)

target: T1, human NEP (Homo sapiens, UniProt P08473); assay: In vitro enzyme inhibition assay, inhibitor potency at human NEP (Assay 1); assay type: biochemical; conditions: recombinant human NEP; fluorogenic peptide substrate 10 μM; 37° C.; values given as ranges
T1 construct: purchased R&D Systems, Minneapolis, Minn; 1182-ZN
Procedure: The inhibitory activities of compounds at human and rat neprilysin (EC 3.4.24.11; NEP) and human angiotensin converting enzyme (ACE) were determined using in vitro assays as described below.
Recombinant human NEP and recombinant human ACE were obtained commercially (R&D Systems, Minneapolis, Minn., catalog numbers 1182-ZN and 929-ZN, respectively). The fluorogenic peptide substrate Mca-D-Arg-Arg-Leu-Dap-(Dnp)-OH (Medeiros et al. (1997) Braz. J. Med. Biol. Res. 30:1157-62; Anaspec, San Jose, Calif.) and Abz-Phe-Arg-Lys(Dnp)-Pro-OH (Araujo et al. (2000) Biochemistry 39:8519-8525; Bachem, Torrance, Calif.) were used in the NEP and ACE assays respectively.
The assays were performed in 384-well white opaque plates at 37° C. using the fluorogenic peptide substrates at a concentration of 10 μM in Assay Buffer (NEP: 50 mM HEPES, pH 7.5, 100 mM NaCl, 0.01% polyethylene glycol sorbitan monolaurate (Tween-20), 10 μM ZnSO4; ACE: 50 mM HEPES, pH 7.5, 100 mM NaCl, 0.01% Tween-20, 1 μM ZnSO4).
Test compounds were assayed over the range of concentrations from […] to 20 μM. Test compounds were added to the enzymes and incubated for 30 minute at 37° C. prior to initiating the reaction by the addition of substrate. Reactions were terminated after 20 minutes of incubation at 37° C. by the addition of glacial acetic acid to a final concentration of 3.6% (v/v).
Plates were read on a fluorometer with excitation and emission wavelengths set to 320 nm and 405 nm, respectively. Inhibition constants were obtained by nonlinear regression of the data using the equation (GraphPad Software, Inc., San Diego, Calif.): ν=ν0/[1+(I/K′)] where ν is the reaction rate, ν0 is the uninhibited reaction rate, I is the inhibitor concentration and K′ is the apparent inhibition constant.
Compounds of the invention were tested in this assay and found to have pKi values at human NEP as follows.

T1 sequence (P08473 52-750 limits assumed): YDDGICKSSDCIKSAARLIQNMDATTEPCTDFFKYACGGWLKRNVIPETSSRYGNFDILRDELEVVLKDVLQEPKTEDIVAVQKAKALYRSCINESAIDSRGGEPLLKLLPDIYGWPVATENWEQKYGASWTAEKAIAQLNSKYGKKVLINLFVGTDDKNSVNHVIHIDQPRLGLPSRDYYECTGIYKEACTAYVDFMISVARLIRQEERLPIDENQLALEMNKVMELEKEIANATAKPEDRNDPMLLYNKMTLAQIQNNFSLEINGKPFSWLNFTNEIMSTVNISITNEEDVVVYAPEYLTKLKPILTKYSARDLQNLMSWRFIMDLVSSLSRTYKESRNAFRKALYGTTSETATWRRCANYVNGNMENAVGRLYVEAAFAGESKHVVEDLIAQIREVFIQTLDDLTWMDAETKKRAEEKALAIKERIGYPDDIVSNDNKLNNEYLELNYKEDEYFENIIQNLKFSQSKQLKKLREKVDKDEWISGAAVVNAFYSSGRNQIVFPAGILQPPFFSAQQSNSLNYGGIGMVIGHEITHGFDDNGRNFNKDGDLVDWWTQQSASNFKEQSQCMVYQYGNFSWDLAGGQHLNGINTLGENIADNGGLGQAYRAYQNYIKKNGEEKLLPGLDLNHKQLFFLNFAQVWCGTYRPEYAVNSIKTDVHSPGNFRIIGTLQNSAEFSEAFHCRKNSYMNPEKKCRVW

Ki	Compound
≤ 1 nM	O=C(N[C@H](Cc1ccc(-c2cccc(Cl)c2)cc1)C[C@@H](O)C(=O)O)C(=O)N1CCCC[C@@H]1CO [Example 4-25, (2R,4R)-5-(3′-Chlorobiphenyl-4-yl)-2-hydroxy-4-[2-((R)-2-hydroxymethyl-piperidin-1-yl)-2-oxo-acetylamino]pentanoic acid]
≤ 1 nM	O=C(N[C@H](Cc1ccc(-c2cccc(Cl)c2)cc1)C[C@@H](O)C(=O)O)C(=O)N1CCCC[C@H]1CO [Example 4-26, (2R,4R)-5-(3′-Chlorobiphenyl-4-yl)-2-hydroxy-4-[2-((S)-2-hydroxymethyl-piperidin-1-yl)-2-oxo-acetylamino]pentanoic acid]
1 to 10 nM	O=C(N[C@H](Cc1ccc(-c2cccc(Cl)c2)cc1)C[C@@H](O)C(=O)O)C(=O)N1CCC(C(=O)O)CC1 [Example 4-27, 1-[(1R,3R)-3-Carboxy-1-(3′-chlorobiphenyl-4-ylmethyl)-3-hydroxypropyl-aminooxalyl]-piperidine-4-carboxylic acid]
1 to 10 nM	O=C(N[C@H](Cc1ccc(-c2cccc(Cl)c2)cc1)C[C@@H](O)C(=O)O)C(=O)N1CCCC(C(=O)O)C1 (stereo partly drawn) [Example 4-28, 1-[(1R,3R)-3-Carboxy-1-(3′-chlorobiphenyl-4-ylmethyl)-3-hydroxypropyl-aminooxalyl]-piperidine-3-carboxylic acid]
10 to 31.6 nM	NC(=O)C1CCN(C(=O)C(=O)N[C@H](Cc2ccc(-c3cccc(Cl)c3)cc2)C[C@@H](O)C(=O)O)CC1 [Example 4-29, (2R,4R)-4-[2-(4-Carbamoyl-piperidin-1-yl)-2-oxo-acetylamino]-5-(3′-chlorobiphenyl-4-yl)-2-hydroxypentanoic acid]
10 to 31.6 nM	N#CC1CCCN(C(=O)C(=O)N[C@H](Cc2ccc(-c3cccc(Cl)c3)cc2)C[C@@H](O)C(=O)O)C1 (stereo partly drawn) [Example 4-30, (2R,4R)-5-(3′-Chlorobiphenyl-4-yl)-4-[2-(3-cyanopiperidin-1-yl)-2-oxo-acetylamino]-2-hydroxypentanoic acid]
10 to 31.6 nM	O=C(N[C@H](Cc1ccc(-c2cccc(Cl)c2)cc1)C[C@@H](O)C(=O)O)C(=O)N1CCC(F)CC1 [Example 4-31, (2R,4R)-5-(3′-Chlorobiphenyl-4-yl)-4-[2-(4-fluoropiperidin-1-yl)-2-oxo-acetylamino]-2-hydroxypentanoic acid]
10 to 31.6 nM	O=C(N[C@H](Cc1ccc(-c2cccc(Cl)c2)cc1)C[C@@H](O)C(=O)O)C(=O)N1CCCC(CCO)C1 (stereo partly drawn) [Example 4-32, (2R,4R)-5-(3′-Chlorobiphenyl-4-yl)-2-hydroxy-4-{2-[3-(2-hydroxyethyl)-piperidin-1-yl]-2-oxo-acetylamino}pentanoic acid]
1 to 10 nM	O=C(N[C@H](Cc1ccc(-c2cccc(Cl)c2)cc1)C[C@@H](O)C(=O)O)C(=O)N1CCC[C@H](CO)C1 [Example 4-33, (2R,4R)-5-(3′-Chlorobiphenyl-4-yl)-2-hydroxy-4-[2-((S)-3-hydroxymethyl-piperidin-1-yl)-2-oxo-acetylamino]pentanoic acid]
10 to 31.6 nM	CN1CCN(C(=O)C(=O)N[C@H](Cc2ccc(-c3cccc(Cl)c3)cc2)C[C@@H](O)C(=O)O)CC1 [Example 4-34, (2R,4R)-5-(3′-Chlorobiphenyl-4-yl)-2-hydroxy-4-[2-(4-methyl-piperazin-1-yl)-2-oxo-acetylamino]pentanoic acid]
10 to 31.6 nM	CCOC(=O)N1CCN(C(=O)C(=O)N[C@H](Cc2ccc(-c3cccc(Cl)c3)cc2)C[C@@H](O)C(=O)O)CC1 [Example 4-35, 4-[(1R,3R)-3-Carboxy-1-(3′-chlorobiphenyl-4-ylmethyl)-3-hydroxy-propylaminooxalyl]-piperazine-1-carboxylic acid ethyl ester]
1 to 10 nM	O=C(N[C@H](Cc1ccc(-c2cccc(Cl)c2)cc1)C[C@@H](O)C(=O)O)C(=O)N1CCN(C(=O)c2ccco2)CC1 [Example 4-36, (2R,4R)-5-(3′-Chlorobiphenyl-4-yl)-4-{2-[4-(furan-2-carbonyl)-piperazin-1-yl]-2-oxo-acetylamino}-2-hydroxypentanoic acid]
10 to 31.6 nM	N#Cc1ccccc1N1CCN(C(=O)C(=O)N[C@H](Cc2ccc(-c3cccc(Cl)c3)cc2)C[C@@H](O)C(=O)O)CC1 [Example 4-37, (2R,4R)-5-(3′-Chlorobiphenyl-4-yl)-4-{2-[4-(2-cyano-phenyl)-piperazin-1-yl]-2-oxo-acetylamino}-2-hydroxypentanoic acid]
10 to 31.6 nM	CCOCCN1CCN(C(=O)C(=O)N[C@H](Cc2ccc(-c3cccc(Cl)c3)cc2)C[C@@H](O)C(=O)O)CC1 [Example 4-38, (2R,4R)-5-(3′-Chlorobiphenyl-4-yl)-4-{2-[4-(2-ethoxy-ethyl)-piperazin-1-yl]-2-oxo-acetylamino}-2-hydroxypentanoic acid]
10 to 31.6 nM	CS(=O)(=O)N1CCN(C(=O)C(=O)N[C@H](Cc2ccc(-c3cccc(Cl)c3)cc2)C[C@@H](O)C(=O)O)CC1 [Example 4-39, (2R,4R)-5-(3′-Chlorobiphenyl-4-yl)-2-hydroxy-4-[2-(4-methanesulfonyl-piperazin-1-yl)-2-oxo-acetylamino]pentanoic acid]
10 to 31.6 nM	CN(C)C(=O)N1CCN(C(=O)C(=O)N[C@H](Cc2ccc(-c3cccc(Cl)c3)cc2)C[C@@H](O)C(=O)O)CC1 [Example 4-40, (2R,4R)-5-(3′-Chlorobiphenyl-4-yl)-4-[2-(4-dimethylcarbamoyl-piperazin-1-yl)-2-oxo-acetylamino]-2-hydroxypentanoic acid]
1 to 10 nM	COC(=O)N1CCN(C(=O)C(=O)N[C@H](Cc2ccc(-c3cccc(Cl)c3)cc2)C[C@@H](O)C(=O)O)CC1 [Example 4-41, 4-[(1R,3R)-3-Carboxy-1-(3′-chlorobiphenyl-4-ylmethyl)-3-hydroxy-propylaminooxalyl]-piperazine-1-carboxylic acid methyl ester]
10 to 31.6 nM	C[C@@H]1COC[C@H](C)N1C(=O)C(=O)N[C@H](Cc1ccc(-c2cccc(Cl)c2)cc1)C[C@@H](O)C(=O)O [Example 4-42, (2R,4R)-5-(3′-Chlorobiphenyl-4-yl)-4-[2-((3R,5S)-3,5-dimethylmorpholin-4-yl)-2-oxo-acetylamino]-2-hydroxypentanoic acid]
1 to 10 nM	O=C(N[C@H](Cc1ccc(-c2cccc(Cl)c2)cc1)C[C@@H](O)C(=O)O)C(=O)N1CCOC(CO)C1 (stereo partly drawn) [Example 4-43, (2R,4R)-5-(3′-Chlorobiphenyl-4-yl)-2-hydroxy-4-[2-(2-hydroxymethyl-morpholin-4-yl)-2-oxo-acetylamino]pentanoic acid]
1 to 10 nM	O=C(N[C@H](Cc1ccc(-c2cccc(Cl)c2)cc1)C[C@@H](O)C(=O)O)C(=O)N1CCOCC1 [Example 4-44, (2R,4R)-5-(3′-Chlorobiphenyl-4-yl)-2-hydroxy-4-(2-morpholin-4-yl-2-oxo-acetylamino)pentanoic acid]
1 to 10 nM	C[C@@H]1CN(C(=O)C(=O)N[C@H](Cc2ccc(-c3cccc(Cl)c3)cc2)C[C@@H](O)C(=O)O)C[C@H](C)O1 [Example 4-45, (2R,4R)-5-(3′-Chlorobiphenyl-4-yl)-4-[2-((2R,6S)-2,6-dimethylmorpholin-4-yl)-2-oxo-acetylamino]-2-hydroxypentanoic acid]
1 to 10 nM	C[C@@H]1CO[C@@H](C)CN1C(=O)C(=O)N[C@H](Cc1ccc(-c2cccc(Cl)c2)cc1)C[C@@H](O)C(=O)O [Example 4-46, (2R,4R)-5-(3′-Chlorobiphenyl-4-yl)-4-[2-((2S,5R)-2,5-dimethylmorpholin-4-yl)-2-oxo-acetylamino]-2-hydroxypentanoic acid]
1 to 10 nM	C[C@H]1COC[C@H](C)N1C(=O)C(=O)N[C@H](Cc1ccc(-c2cccc(Cl)c2)cc1)C[C@@H](O)C(=O)O [Example 4-47, (2R,4R)-5-(3′-Chlorobiphenyl-4-yl)-4-[2-((3S,5S)-3,5-dimethylmorpholin-4-yl)-2-oxo-acetylamino]-2-hydroxypentanoic acid]
1 to 10 nM	O=C(N[C@H](Cc1ccc(-c2cccc(Cl)c2)cc1)C[C@@H](O)C(=O)O)C(=O)N1CCCO1 [Example 4-48, (2R,4R)-5-(3′-Chlorobiphenyl-4-yl)-2-hydroxy-4-(2-isoxazolidin-2-yl-2-oxo-acetylamino)pentanoic acid]
1 to 10 nM	O=C(N[C@H](Cc1ccc(-c2cccc(Cl)c2)cc1)C[C@@H](O)C(=O)O)C(=O)N1CC(O)CO1 (stereo partly drawn) [Example 4-49, (2R,4R)-5-(3′-Chlorobiphenyl-4-yl)-2-hydroxy-4-[2-(4-hydroxyisoxazolidin-2-yl)-2-oxo-acetylamino]pentanoic acid]
10 to 31.6 nM	O=C(N[C@H](Cc1ccc(-c2cccc(Cl)c2)cc1)C[C@@H](O)C(=O)O)C(=O)N1CC2(COC2)C1 [Example 4-50, (2R,4R)-5-(3′-Chlorobiphenyl-4-yl)-2-hydroxy-4-[2-(2-oxa-6-aza-spiro[3.3]hept-6-yl)-2-oxo-acetylamino]pentanoic acid]
